Source: article PMC12216609, “Inhibitors of eIF1A-ribosome interaction unveil uORF-dependent regulation of translation initiation and antitumor and antiviral effects” (The EMBO Journal, 2025)
Where “and” joins values, the source holds several entries; their conditions need not be identical. Equal entries are not always repeated. Where two headings read alike, the source gives them in different places.

Assays:
[1] = molecular target: T1, eIF1A without NTT (Homo sapiens, UniProt P47813); test: Fluorescence binding assay with NTT-truncated eIF1A; conditions: for fluorescence ratio, eIF1A Δ NTT: background-corrected, relative to DMSO or lowest 1Ai concentration, replicate columns
T1 construct: His-bdSUMO (cleaved yes); made in house; host or cells: E. coli (BL-21)
T1 sequence (P47813 31-144 limits assumed): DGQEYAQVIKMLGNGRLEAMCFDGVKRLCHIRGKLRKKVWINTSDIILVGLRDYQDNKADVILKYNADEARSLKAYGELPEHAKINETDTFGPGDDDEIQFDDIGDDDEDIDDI

[2] = tested on: CUG/GUG vs AUG start codon luciferase reporters in HEK293T cells; test: Near-cognate AUG starting codon fidelity reporter assay (GUG, CUG vs AUG); format: cell-based; conditions: for average CUG and GUG / average CUG and GUG relative to DMSO / CUG Average / GUG Average: NUG experiment; for CUG Average: CUG vs AUG reporter; for GUG Average: GUG vs AUG reporter; for NUG (Final data, Fig. 1E): average CUG and GUG relative to DMSO, 20 µM overnight; for GUG vs AUG data (%): individual repeat; for GUG vs AUG (%) Average: summary average of repeats, DMSO control average […]
[3] = molecular target: NSP1 (Severe acute respiratory syndrome coronavirus 2, UniProt P0DTD1)
[4] = tested on: IRF7 5'UTR firefly luciferase reporter in HEK293T cells; conditions: for Reference vs IRF7 (Final data, Fig. 1E): 1/Result, relative to DMSO; for LONG (summary - All), normalized to DMSO: Long reporter; for LONG (summary - All), normalized to DMSO / SHORT (summary - All), normalized to DMSO: individual replicates, outliers excluded, DMSO = 1; for SHORT (summary - All), normalized to DMSO: Short reporter; for average ( long vs short ratio): summary - All;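 for all read-outs here: luciferase signal corrected by a co-transfected GFP reporter for transfection efficiency, read after overnight compound exposure, with Long and Short reporters differing in 5'UTR length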
[5] = molecular target: T2, eIF1A without CTT (Homo sapiens, UniProt P47813); format: binding; conditions: for fluorescence ratio, eIF1A Δ CTT: background-corrected, relative to DMSO or lowest 1Ai concentration, replicate columns
T2 construct: His-bdSUMO (cleaved yes); made in house; host or cells: E. coli (BL-21)
T2 sequence (P47813 1-114 limits assumed): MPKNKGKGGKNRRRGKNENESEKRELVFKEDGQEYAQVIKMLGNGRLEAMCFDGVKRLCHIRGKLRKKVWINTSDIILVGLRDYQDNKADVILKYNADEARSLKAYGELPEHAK

[6] = eIF1A Δ CTT, from the titration data, read-out: IC50 (eIF1A Δ CTT titration block)
[7] = summary table, fluorescence binding assay, read-out: IC50 concentration (µM), CTT truncation
[8] = 1Ai conc. 0.5 uM, listed as 5662

With `Cc1ccc(C(=O)c2cc(O)c(O)c([N+](=O)[O-])c2)cc1` [1Ai-5576] the “binding to NTT-truncated eIF1A” value [1] was “significantly decreased”, the “fluorescence ratio, eIF1A Δ NTT” value ([1]; 1Ai conc. 0.25 uM) was 0.8023 and 0.892 and the “fluorescence ratio, eIF1A Δ NTT” value ([1]; 1Ai conc. 0.5 uM) was 0.7712 and 0.8267. For the same compound, the “fluorescence ratio, eIF1A Δ NTT” value ([1]; 1Ai conc. 1 uM) was 0.7599 and 0.8722, the “fluorescence ratio, eIF1A Δ NTT” value ([1]; 1Ai conc. 2 uM) was 0.7825 and 0.8608 and the “fluorescence ratio, eIF1A Δ NTT” value ([1]; 1Ai conc. 4 uM) was 0.6215 and 0.8636. The “fluorescence ratio, eIF1A Δ NTT” value ([1]; 1Ai conc. 8 uM) was 0.5932 and 0.9091, the “fluorescence ratio, eIF1A Δ NTT” value ([1]; 1Ai conc. 16 uM) was 0.5932 and 0.7358 and the “fluorescence ratio, eIF1A Δ NTT” value ([1]; 1Ai conc. 32 uM) was 0.5395 and 0.6733. For the same compound, the “fluorescence ratio, eIF1A Δ NTT” value ([1]; 1Ai conc. 64 uM) was 0.7175 and 0.7159, the “fluorescence ratio, eIF1A Δ NTT” value ([1]; 1Ai conc. 256 uM) was 0.4605 and 0.6165 and the “CUG vs AUG (%)” value ([2]; CUG start codon reporter relative to AUG reporter (AUG = 100), compound at 20uM (summary head), single-experiment calculation) was 5.985%. For the same compound, the “GUG vs AUG (%)” value ([2]; GUG start codon reporter relative to AUG reporter (AUG = 100), compound at 20uM (summary head), single-experiment calculation) was 2.005%, the “average CUG and GUG” value [2] was 6.465 and the “average CUG and GUG relative to DMSO” value [2] was 1.433. For the same compound, the “CUG Average” value [2] was 9.471, the “GUG Average” value [2] was 3.46 and the “NUG (Final data, Fig. 1E)” value [2] was 1.433. For the same compound, the “GUG vs AUG data (%)” value ([2]; compound at 20uM) was 2.91% and 4.78% and 2.69%, the “GUG vs AUG (%) Average” value ([2]; compound at 20uM) was 3.46% and the “GFP reporter ratio nsp1/gfp, avg” value [3] was 0.4237. The “GFP reporter ratio nsp1/gfp, rep 1” value [3] was 0.4237, the “gfp signal, mean of duplicate wells” value [3] was 2857 and the “nsp1 signal, mean of duplicate wells” value [3] was 1210.5. The “ratio (nsp1/gfp)” value [3] was 0.424, the “Reference vs IRF7 (Final data, Fig. 1E)” value ([4]; 20 µM) was 1.896 and the “LONG (summary - All), normalized to DMSO” value ([4]; 20 µM) was 0.11 and 0.20 and 0.17. For the same compound, the “SHORT (summary - All), normalized to DMSO” value ([4]; 20 µM) was 0.23 and 0.53 and 0.25 and 0.22, the “Long 5'UTR reporter luciferase activity, normalized to DMSO (=1), single replicates” value ([4]; compound at 20 µM, left data block (Long), source data of Fig 1C) was 0.1126 and 0.2 and 0.1668 and 0.166 and the “average ( long vs short ratio)” value ([4]; 20 µM) was 0.527. The “fluorescence ratio, eIF1A Δ CTT” value ([5]; 1Ai conc. 0.25 uM) was 0.7373 and 0.785, the “fluorescence ratio, eIF1A Δ CTT” value ([5]; 1Ai conc. 0.5 uM) was 0.8173 and 0.7741 and the “fluorescence ratio, eIF1A Δ CTT” value ([5]; 1Ai conc. 1 uM) was 0.744 and 0.7009. For the same compound, the “fluorescence ratio, eIF1A Δ CTT” value ([5]; 1Ai conc. 2 uM) was 0.6013 and 0.6558, the “fluorescence ratio, eIF1A Δ CTT” value ([5]; 1Ai conc. 4 uM) was 0.5053 and 0.5218 and the “fluorescence ratio, eIF1A Δ CTT” value ([5]; 1Ai conc. 8 uM) was 0.4227 and 0.4252. The “fluorescence ratio, eIF1A Δ CTT” value ([5]; 1Ai conc. 16 uM) was 0.332 and 0.3364, the “fluorescence ratio, eIF1A Δ CTT” value ([5]; 1Ai conc. 32 uM) was 0.26 and 0.2352 and the “fluorescence ratio, eIF1A Δ CTT” value ([5]; 1Ai conc. 64 uM) was 0.208 and 0.1745. The “fluorescence ratio, eIF1A Δ CTT” value ([5]; 1Ai conc. 256 uM) was 0.1973 and 0.1667, the IC50 [5, 6] was 5.38 µM and the IC50 [5, 7] was 5.4 µM.

With `CN(C)CC1CCn2cc(c3ccccc32)C2=C(C(=O)NC2=O)c2cn(c3ccccc23)CCO1` (centres unmarked) [1Ai-5662] the “fluorescence ratio, eIF1A Δ NTT” value ([1]; 1Ai conc. 0.25 uM) was 0.839 and 0.8682 and 1, the “fluorescence ratio, eIF1A Δ NTT” value ([1]; 1Ai conc. 0.5 uM) was 1.068 and the “fluorescence ratio, eIF1A Δ NTT” value [1, 8] was 0.9101 and 0.8837. The “fluorescence ratio, eIF1A Δ NTT” value ([1]; 1Ai conc. 1 uM) was 0.9026 and 0.9044 and 1.056, the “fluorescence ratio, eIF1A Δ NTT” value ([1]; 1Ai conc. 2 uM) was 0.8689 and 0.9922 and 1.016 and the “fluorescence ratio, eIF1A Δ NTT” value ([1]; 1Ai conc. 4 uM) was 0.8614 and 0.9638 and 0.988. For the same compound, the “fluorescence ratio, eIF1A Δ NTT” value ([1]; 1Ai conc. 8 uM) was 0.8277 and 0.845 and 0.9679, the “fluorescence ratio, eIF1A Δ NTT” value ([1]; 1Ai conc. 16 uM) was 0.6816 and 0.8424 and 0.9197 and the “fluorescence ratio, eIF1A Δ NTT” value ([1]; 1Ai conc. 32 uM) was 0.5918 and 0.6641 and 0.7952. For the same compound, the “fluorescence ratio, eIF1A Δ NTT” value ([1]; 1Ai conc. 64 uM) was 0.4307 and 0.4574 and 0.6064, the “fluorescence ratio, eIF1A Δ NTT” value ([1]; 1Ai conc. 256 uM) was 0.2846 and 0.3101 and 0.4458 and the IC50 ([1]; eIF1A Δ NTT, from the titration data, read-out: IC50 (eIF1A Δ NTT titration block)) was 37.9 µM. For the same compound, the IC50 ([1]; summary table, fluorescence binding assay, read-out: IC50 concentration (µM), NTT truncation) was 37.9 µM, the “average CUG and GUG” value [2] was 5.24 and the “average CUG and GUG relative to DMSO” value [2] was 1.162. For the same compound, the “CUG Average” value [2] was 7.645, the “GUG Average” value [2] was 2.835 and the “NUG (Final data, Fig. 1E)” value [2] was 1.162. For the same compound, the “GUG vs AUG data (%)” value ([2]; compound at 10uM) was 1.99% and 4.83% and 1.69%, the “GUG vs AUG (%) Average” value ([2]; compound at 10uM) was 2.83% and the “GFP reporter ratio nsp1/gfp, avg” value [3] was 0.4084. The “GFP reporter ratio nsp1/gfp, rep 1” value [3] was 0.4084, the “gfp signal, mean of duplicate wells” value [3] was 442 and the “nsp1 signal, mean of duplicate wells” value [3] was 180.5. The “ratio (nsp1/gfp)” value [3] was 0.408, the “Reference vs IRF7 (Final data, Fig. 1E)” value ([4]; 20 µM) was 0.936 and the “LONG (summary - All), normalized to DMSO” value ([4]; 10 µM) was 1.11 and 0.84 and 0.46 and 0.50. For the same compound, the “SHORT (summary - All), normalized to DMSO” value ([4]; 10 µM) was 0.67 and 0.80 and 0.62 and 0.63, the “average ( long vs short ratio)” value ([4]; 10 µM) was 1.068 and the “fluorescence ratio, eIF1A Δ CTT” value ([5]; 1Ai conc. 0.25 uM) was 0.8742 and 0.9398. For the same compound, the “fluorescence ratio, eIF1A Δ CTT” value [5, 8] was 0.8855 and 0.8821, the “fluorescence ratio, eIF1A Δ CTT” value ([5]; 1Ai conc. 1 uM) was 0.8798 and 0.8003 and the “fluorescence ratio, eIF1A Δ CTT” value ([5]; 1Ai conc. 2 uM) was 0.8074 and 0.8109. The “fluorescence ratio, eIF1A Δ CTT” value ([5]; 1Ai conc. 4 uM) was 0.7089 and 0.7163, the “fluorescence ratio, eIF1A Δ CTT” value ([5]; 1Ai conc. 8 uM) was 0.4859 and 0.6001 and the “fluorescence ratio, eIF1A Δ CTT” value ([5]; 1Ai conc. 16 uM) was 0.4269 and 0.4563. For the same compound, the “fluorescence ratio, eIF1A Δ CTT” value ([5]; 1Ai conc. 32 uM) was 0.2954 and 0.3164, the “fluorescence ratio, eIF1A Δ CTT” value ([5]; 1Ai conc. 64 uM) was 0.164 and 0.1518 and the “fluorescence ratio, eIF1A Δ CTT” value ([5]; 1Ai conc. 256 uM) was 0.1171 and 0.08567. It also gave an IC50 [5, 6] of 12.4 µM and an IC50 [5, 7] of 12.4 µM.
